Consider 16 compounds from PubChem BioAssay (NCI).

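In this assay, cells in 96-well plates receive the compound at five concentrations for 48 hours. Endpoints are linearly interpolated between the surrounding concentrations. GI50 marks 50% less growth. TGI: concentration producing complete growth inhibition.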

Among the test systems are M14 melanoma; SF-295 CNS; OVCAR-3 ovarian; NCI-H460 lung; KM12 colon; CAKI-1 renal; OVCAR-8 ovarian; SF-268 CNS; PC-3 prostate.
Common to all, as to assay: NCI tumour cell line growth inhibition, 48 h

As to `COC1C(OC(=S)Nc2ccccc2)c2ccccc2N1C(C)=O` (stereo unspecified), the TGI in the assay with M14 melanoma, with SF-295 CNS, with OVCAR-3 ovarian, with NCI-H460 lung, with KM12 colon and in the assay with CAKI-1 renal was above 100 µM in each case. In the assay with OVCAR-8 ovarian, this compound returned a TGI above 100 µM.

In the case of `CC12CCC(=O)C[C@H]1CCC(OC=O)C2Br` (stereo partly specified), the TGI in the assay with M14 melanoma, in the assay with SF-295 CNS, in the assay with OVCAR-3 ovarian, in the assay with NCI-H460 lung, in the assay with SF-268 CNS and with KM12 colon was above 100 µM each time. The TGI with CAKI-1 renal and in the assay with OVCAR-8 ovarian was above 100 µM throughout.

Take `Cc1cc2c(=O)c3ccccc3[nH]c2c(C(N)=O)c1C`: the TGI in the assay on M14 melanoma, in the assay with SF-295 CNS, with OVCAR-3 ovarian, in the assay on NCI-H460 lung, in the assay on SF-268 CNS and with KM12 colon was above 100 µM throughout. Moreover, the TGI with CAKI-1 renal and in the assay on OVCAR-8 ovarian was above 100 µM each time.

`COc1c(O)c2c(=O)cc3c4c5c(cc(=O)c6c(O)c(OC)c(CC(C)O)c(c(c1CC(C)O)c24)c65)OCO3` (stereo unspecified): the TGI amounted to 3.57 µM with M14 melanoma; 6.09 µM in the assay with SF-295 CNS; 6.63 µM in the assay with OVCAR-3 ovarian; 2.32 µM in the assay on NCI-H460 lung; 5.97 µM in the assay on SF-268 CNS; 4.09 µM in the assay on KM12 colon. In addition, the TGI in the assay with CAKI-1 renal was 24.3 µM; in the assay on OVCAR-8 ovarian, 5.15 µM.

Regarding `CSc1nc(SC)c2c(C#N)[nH]nc2n1`, the TGI with M14 melanoma, in the assay with SF-295 CNS, in the assay on OVCAR-3 ovarian, in the assay on NCI-H460 lung, in the assay with SF-268 CNS and in the assay on KM12 colon was above 100 µM each time. The TGI with CAKI-1 renal and with OVCAR-8 ovarian was above 100 µM in each case.

On to `Nc1ncn([C@@H]2O[C@H](CO)[C@@H](O)[C@H]2O)c(=O)n1`, for which the GI50 in the assay on M14 melanoma was 1.38 µM; in the assay on SF-295 CNS, 2.28 µM; with OVCAR-3 ovarian, 1.56 µM; with NCI-H460 lung, 0.232 µM; in the assay with PC-3 prostate, 2.17 µM; in the assay on SF-268 CNS it was 2.14 µM. Further, the GI50 in the assay on CAKI-1 renal is 0.275 µM; in the assay with OVCAR-8 ovarian it was 0.766 µM. For the same compound, the TGI in the assay with M14 melanoma is 10.8 µM; in the assay with SF-295 CNS, 58.7 µM; in the assay on OVCAR-3 ovarian it was 3.69 µM; with NCI-H460 lung, 1.78 µM; with PC-3 prostate, above 100 µM; in the assay on SF-268 CNS, 34.7 µM. Further, the TGI was 3.25 µM in the assay with CAKI-1 renal and above 100 µM in the assay with OVCAR-8 ovarian.

On to `COc1ccc(OCC(=O)O)c2c1CCCC2=O`, for which the TGI in the assay with M14 melanoma, in the assay with SF-295 CNS, with OVCAR-3 ovarian, with NCI-H460 lung, in the assay with SF-268 CNS and with KM12 colon was above 100 µM each time. Also, the TGI in the assay with OVCAR-8 ovarian was above 100 µM.

As to `CC(C)(C)c1cc(C(P(=O)(O)O)P(=O)(O)O)cc(C(C)(C)C)c1O`, the TGI in the assay with M14 melanoma, in the assay on SF-295 CNS, with OVCAR-3 ovarian, in the assay on NCI-H460 lung, in the assay with SF-268 CNS and in the assay with KM12 colon was above 100 µM in each case. Also, the TGI in the assay with CAKI-1 renal and in the assay with OVCAR-8 ovarian was above 100 µM throughout.

Consider `COC(=O)/C(C#N)=C1\N=NNN1c1ccc(OC)cc1`, for which the TGI with M14 melanoma, in the assay with SF-295 CNS, with OVCAR-3 ovarian, in the assay with NCI-H460 lung, with KM12 colon and with CAKI-1 renal was above 100 µM in each case. Besides, the TGI in the assay on OVCAR-8 ovarian was above 100 µM.

For the compound `O=C(/C(=C/c1ccc(Cl)cc1)c1ccccc1)c1ccccc1`, the TGI in the assay with M14 melanoma amounted to 31.4 µM; with SF-295 CNS it was 39.7 µM; in the assay with NCI-H460 lung it was 34.8 µM; in the assay with SF-268 CNS it was 41.8 µM; in the assay on KM12 colon it was 30.5 µM; in the assay with OVCAR-8 ovarian, 50.7 µM.

For the compound `CC(C)C1=Cc2ccc3c(c2C(=O)C1=O)CCCC3(C)C`, the TGI with M14 melanoma came to 16.2 µM; in the assay with SF-295 CNS it was 31 µM; in the assay on OVCAR-3 ovarian, 6.71 µM; with NCI-H460 lung it was 37 µM; with SF-268 CNS it was 20.2 µM; with KM12 colon, 33.1 µM. The results for the TGI in the assay with CAKI-1 renal and in the assay on OVCAR-8 ovarian were 6.69 µM and 10 µM, respectively.

As to `COCC(OC)C(CC=C(C#N)C#N)OC` (stereo unspecified), the TGI in the assay with M14 melanoma, in the assay on SF-295 CNS, with OVCAR-3 ovarian, in the assay on SF-268 CNS, with KM12 colon and in the assay on CAKI-1 renal was above 100 µM in each case. In the assay on OVCAR-8 ovarian, this compound had a TGI above 100 µM.

`COC(=O)/C(=N\NC(N)=S)C(C(=O)OC)C(=O)C(=O)Nc1ccc(C)cc1` (stereo unspecified): the TGI in the assay with M14 melanoma, with SF-295 CNS, in the assay with OVCAR-3 ovarian, with NCI-H460 lung, with SF-268 CNS and with KM12 colon was above 100 µM each time. Besides, the TGI in the assay with CAKI-1 renal and in the assay with OVCAR-8 ovarian was above 100 µM each time.

Turning to `CCCCCCCCCCCCCCCC(=O)OCCOCCOCCOCc1ccccc1`, the TGI in the assay on SF-295 CNS was 98.4 µM; with OVCAR-3 ovarian, above 100 µM; with NCI-H460 lung, above 100 µM; in the assay on SF-268 CNS, above 100 µM; with KM12 colon, above 100 µM; in the assay with CAKI-1 renal, above 100 µM. The TGI in the assay with OVCAR-8 ovarian is above 100 µM.

On to `COC(=O)C(=Cc1cc(OC)c(OC)c(OC)c1-c1cc2c(cc1C1(C)OCCS1)OCO2)C(=O)OC` (stereo unspecified), for which the TGI in the assay with SF-295 CNS is above 100 µM; with OVCAR-3 ovarian, 54.6 µM; in the assay on NCI-H460 lung, above 100 µM; with SF-268 CNS, above 100 µM; in the assay with KM12 colon, 79.8 µM; in the assay on CAKI-1 renal, above 100 µM. In the assay on OVCAR-8 ovarian, the TGI is above 100 µM.

`O=C(OC1CCC(=C2SCCCS2)[C@H]1C1SCCCS1)c1ccccc1` (stereo partly specified): the TGI with M14 melanoma, with SF-295 CNS, in the assay on OVCAR-3 ovarian, in the assay with NCI-H460 lung, in the assay on KM12 colon and in the assay with OVCAR-8 ovarian was above 100 µM each time.
